Literature values in US12697339B2, “Composition and methods of treatment using synergistically-enhanced supplementation” (Xygenyx Inc., priority 2023, dated 2026).
Non-standard residues stand in square brackets, D forms with d. Residues, ends and D or L forms follow the SMILES beside them. Cit = NC(=O)NCCC[C@H](N)C(=O)O

Legend:
skin [1] = details: as penetration enhancer for transdermal drugs
[2] = studies using mice
[3] = tested on: wide dynamic range neurons in the ventroposterolateral nucleus of the thalamus; details: believed
[4] = in vivo
skin [5] = details: topical formulations, within four weeks of treatment
skin [6] = details: topical application, concentrations 0.5-5%
[7] = compared to α-tocopherol with biological activity factor 1.0
[8] = even when dietary intake occurs in equal portions
[9] = in vivo; remark: listed apart in the source

**Q.** Which “factor of increase in drug uptake via the transdermal route” value (skin [1]) does the source give for `CC12CCC(CC1)C(C)(C)O2` [Eucalyptol] here?
**A.** more than 10

**Q.** Which tolerated dose [2] does the source give for `CC(CN)C(=O)O` [L-BAIBA, L-beta-aminoisobutyric acid] here?
**A.** 10-100 mg/kg of bodyweight

**Q.** Which “factor of increase in drug uptake via the transdermal route” value (skin [1]) does the source give for `CC(C)[C@@H]1CC[C@@H](C)C[C@H]1O` [Menthol] here?
**A.** ≥ 10

**Q.** With `CCCCCc1cc(O)c2c(c1)OC(C)(C)C1CCC(C)=CC21` (stereo not drawn) [THC, Δ-9-tetrahydrocannabinol] as the compound, how does the “power in mediating pain relative to morphine” value [3] read?
**A.** ten times more powerful than morphine

**Q.** With `CCNC(=O)CC[C@H](N)C(=O)O` [Theanine] as the compound, how does the “dose considered safe and well-tolerated” value [4] read?
**A.** up to 400 mg per day

**Q.** With `CC[C@H](C)[C@H](NC(=O)[C@H](CC(=O)O)NC(=O)[C@@H](N)CCCCN)C(=O)N[C@@H](CCCNC(N)=O)C(N)=O` [Tripeptide-10 citrulline] (H-KDI[Cit]-NH2) as the compound, how does the improvement of suppleness (skin [5]) read?
**A.** ≤ 54%

**Q.** With `C=CCCCCCCCCC(=O)N[C@@H](Cc1ccccc1)C(=O)O` [Undecylenoyl phenylalanine] as the compound, how does the “time of treatment to skin lightening effects” value (skin [6]) read?
**A.** ≥ 7 days

**Q.** For `Cc1c(C)c2c(c(C)c1O)CC[C@@](C)(CCC[C@H](C)CCC[C@H](C)CCCC(C)C)O2` [α-tocopherol], which “reduction of risk of coronary disease” value (dietary supplementation, doses up to 400 IU/day) is on record?
**A.** up to 34%

**Q.** And the “reduction of risk of developing neurodegenerative diseases such as Alzheimer's Syndrome or dementia” value (dietary supplementation, doses up to 400 IU/day, controlled trials)?
**A.** ≤ 24%

**Q.** And the “reduction in the development of age-related cataracts” value (in combination with 10-20 mg β-carotene and 400-500 mg vitamin C, doses around 400-500 IU)?
**A.** 23%

**Q.** With `Cc1cc(O)c(C)c2c1O[C@](C)(CCC[C@H](C)CCC[C@H](C)CCCC(C)C)CC2` [β-tocopherol] as the compound, how does the relative biological activity [7] read?
**A.** 0.5

**Q.** Which relative biological activity [7] does the source give for `Cc1c(O)cc2c(c1C)O[C@](C)(CCC[C@H](C)CCC[C@H](C)CCCC(C)C)CC2` [γ-tocopherol] here?
**A.** 0.1

**Q.** And the “concentration in vivo relative to α-tocopherol” value [8]?
**A.** roughly 10%

**Q.** Which relative biological activity [7] does the source give for `Cc1cc(O)cc2c1O[C@](C)(CCC[C@H](C)CCC[C@H](C)CCCC(C)C)CC2` [δ-tocopherol] here?
**A.** 0.03

**Q.** With “HGH: hormone comprising a peptide chain that is synthesized in the pituitary gland” as the compound, how does the biological half-life [9] read?
**A.** 10-20 minutes
